Structures can show the parent of a compound that is named as a salt.
Assay: Tested for 50% inhibition of generation of Human Ha-ras polymerase chain reaction(PCR) products

Compound	IC50
Cn1cc(NC(=O)c2cc(NC(=O)c3cc(NC(=O)c4cc5cc(N(CCCl)CCCl)ccc5n4C)cn3C)cn2C)cc1C(=O)NCCC(=N)N [5-[Bis-(2-chloro-ethyl)-amino]-1-methyl-1H-indole-2-carboxylic acid (5-{5-[5-(2-carbamimidoyl-ethylcarbamoyl)-1-methyl-1H-pyrrol-3-ylcarbamoyl]-1-methyl-1H-pyrrol-3-ylcarbamoyl}-1-methyl-1H-pyrrol-3-yl)-amide; hydrochloride]	20 nM
Cn1cc(NC(=O)c2cc(NC(=O)c3cc(NC(=O)c4cc5cc(NC(=O)c6ccc(N(CCCl)CCCl)cc6)ccc5[nH]4)cn3C)cn2C)cc1C(=O)NCCC(=N)N [5-{4-[Bis-(2-chloro-ethyl)-amino]-benzoylamino}-1H-indole-2-carboxylic acid (5-{5-[5-(2-carbamimidoyl-ethylcarbamoyl)-1-methyl-1H-pyrrol-3-ylcarbamoyl]-1-methyl-1H-pyrrol-3-ylcarbamoyl}-1-methyl-1H-pyrrol-3-yl)-amide; hydrochloride]	15 nM
Cn1cc(NC(=O)c2cc(NC(=O)c3cc(NC(=O)c4cc5cc(N(CCCl)CCCl)ccc5[nH]4)cn3C)cn2C)cc1C(=O)NCCC(=N)N [5-[Bis-(2-chloro-ethyl)-amino]-1H-indole-2-carboxylic acid (5-{5-[5-(2-carbamimidoyl-ethylcarbamoyl)-1-methyl-1H-pyrrol-3-ylcarbamoyl]-1-methyl-1H-pyrrol-3-ylcarbamoyl}-1-methyl-1H-pyrrol-3-yl)-amide; hydrochloride]	20 nM
Cn1cc(NC(=O)c2cc(NC(=O)c3cc(NC(=O)c4cc5cc(NC(=O)c6ccc(N(CCCl)CCCl)cc6)ccc5o4)cn3C)cn2C)cc1C(=O)NCCC(=N)N [5-{4-[Bis-(2-chloro-ethyl)-amino]-benzoylamino}-benzofuran-2-carboxylic acid (5-{5-[5-(2-carbamimidoyl-ethylcarbamoyl)-1-methyl-1H-pyrrol-3-ylcarbamoyl]-1-methyl-1H-pyrrol-3-ylcarbamoyl}-1-methyl-1H-pyrrol-3-yl)-amide; hydrochloride]	15 nM
Cn1cc(NC(=O)c2cc(NC(=O)c3cc(NC(=O)c4nc5ccc(NC(=O)c6ccc(N(CCCl)CCCl)cc6)cc5[nH]4)cn3C)cn2C)cc1C(=O)NCCC(=N)N [5-{4-[Bis-(2-chloro-ethyl)-amino]-benzoylamino}-1H-benzoimidazole-2-carboxylic acid (5-{5-[5-(2-carbamimidoyl-ethylcarbamoyl)-1-methyl-1H-pyrrol-3-ylcarbamoyl]-1-methyl-1H-pyrrol-3-ylcarbamoyl}-1-methyl-1H-pyrrol-3-yl)-amide; hydrochloride]	15 nM
Cn1cc(NC(=O)c2cc(NC(=O)c3cc(NC(=O)c4cc5cc(NC(=O)c6ccc(N(CCCl)CCCl)cc6)ccc5n4C)cn3C)cn2C)cc1C(=O)NCCC(=N)N [5-{4-[Bis-(2-chloro-ethyl)-amino]-benzoylamino}-1-methyl-1H-indole-2-carboxylic acid (5-{5-[5-(2-carbamimidoyl-ethylcarbamoyl)-1-methyl-1H-pyrrol-3-ylcarbamoyl]-1-methyl-1H-pyrrol-3-ylcarbamoyl}-1-methyl-1H-pyrrol-3-yl)-amide; hydrochloride]	15 nM
Cn1cc(NC(=O)c2cc(NC(=O)c3cc(NC(=O)c4cc5cc(N(CCCl)CCCl)ccc5o4)cn3C)cn2C)cc1C(=O)NCCC(=N)N [5-[Bis-(2-chloro-ethyl)-amino]-benzofuran-2-carboxylic acid (5-{5-[5-(2-carbamimidoyl-ethylcarbamoyl)-1-methyl-1H-pyrrol-3-ylcarbamoyl]-1-methyl-1H-pyrrol-3-ylcarbamoyl}-1-methyl-1H-pyrrol-3-yl)-amide; hydrochloride]	15 nM
